Patent US20040023884A1, “Biologically active peptides from functional domains of bactericidal/permeability-increasing protein and uses thereof” (priority 1993, published 2004)
Ends that are not written are not given here.

How the values were obtained:
[1] = test system: rough mutant E. coli J5 bacteria; experiment: Radial diffusion bactericidal assay, E. coli J5; format: cell-based; details: for pmol added to well to achieve a 30 mm^2 bactericidal zone, E. coli J5: radial diffusion, PROBIT analysis, E. coli J5 (rough)
Summary of the method: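 Wells received 5 or 10 μL of BPI fragment, pre-incubated 3 h at 37 °C. The underlayer agarose carried washed log-phase organisms at 4×10^6 CFU/mL.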

[2] = 3H-heparin binding assay (affinity and capacity); details: for Heparin Capacity: heparin bound at saturation; for Kd: read-out: Heparin Affinity
Summary of the method: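 Peptide fragments were bound to PVDF-membrane wells and incubated with 3H-heparin in blocking buffer for 1 h at 4 °C. After washing, bound radioactivity was quantified by liquid scintillation counting, with BSA background subtracted; rBPI23 served as positive control.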

[3] = test system: E. coli 0113 LPS; experiment: Limulus Amoebocyte Lysate (LAL) inhibition assay; format: biochemical
Description: BPI proteolytic fragments produced according to Example 1 were subjected to a Limulus Amoebocyte Lysate (LAL) inhibition assay to determine LPS binding properties of these fragments. Specifically, each of the fragments were mixed in Eppendorf tubes with a fixed concentration of E. coli 0113 LPS (4 ng/mL final concentration) and incubated at 37° C. for 3 hours with occasional shaking. Addition controls comprising rBPI23 at 0.05 μg/mL were also tested. Following incubation, 360 μL of Dulbecco's phosphate buffered saline (D-PBS; Grand Island Biological Co. (GIBCO), Long Island, N.Y.) were added per tube to obtain an LPS concentration of 200 pg/mL for the LAL assay. Each sample was then transferred into Immulon II strips (Dynatech, Chantilly, Va.) in volumes of 50 μl per well.
Limulus amoebocyte Lysate (Quantitative Chromogenic LAL kit, Whitaker Bioproducts, Inc., Walkersville, Md.) was added at 50 μL per well and the wells were incubated at room temperature for 25 minutes. Chromogenic substrate was then added at a volume of 100 μL per well and was well mixed. After incubation for 20 to 30 minutes at room temperature, the reaction was stopped with addition of 100 μL of 25% (v/v) acetic acid. Optical density at 405 nm was then measured in a multiplate reader (Model Vmax, […], Menlo Park, Calif.) with the results shown in FIG. 2 in terms of percent inhibition of LPS. In this Figure, the filled circle represents rBPI23; the open circle represents Asp-N fragment A3; the x represents Asp-N fragment A2, the filled square represents Asp-N fragment A4; the filled triangle represents Asp-N fragment A1A2; the open square represents Asp-N fragment A6a; the small open triangle represents CNBr fragment C3; and the small filled square represents CNBr fragment C1/C5.

[4] = test system: E. coli 0111:B4 (smooth) bacteria; experiment: Radial diffusion bactericidal assay, E. coli 0111:B4; format: cell-based; details: radial diffusion; PROBIT analysis; E. coli O111:B4 (smooth)
[5] = test system: C. albicans; experiment: Radial diffusion fungicidal assay, Candida albicans; format: cell-based; details: radial diffusion
[6] = test system: Candida albicans; format: cell-based; details: for MIC (x Fold change in fungicidal activity): alanine variant relative to BPI.13
[7] = alanine variant relative to BPI.2

| Sequence | pmol added to well to achieve a 30 mm^2 bactericidal zone, E. coli J5 [1] | Heparin Capacity [2] [ng] | Kd [2] [nM] | LAL / LPS inhibition activity (in words) [3] | pmol added to well to achieve a 30 mm^2 bactericidal zone, E. coli O111:B4 [4] | C. albicans: pmol required for 30 mm^2 zone [5] [pmol] | MIC C. alb [6] [µg/mL] | MIC (x Fold change in fungicidal activity) [6] | LAL (relative difference) [3, 7] | increase of Kd of heparin binding and heparin capacity ([2]; vs unsubstituted peptide) [%] | LAL (relative difference) ([3]; alanine variant relative to BPI.13) | fold reduction in bactericidal activity in the radial diffusion assay ([1]; alanine variant vs unsubstituted peptide) |
| --- | --- | --- | --- | --- | --- | --- | --- | --- | --- | --- | --- | --- |
| ASKVGWLIQLFHKK [BPI.31] | 937.60 pmol | 205.1 | 252 | moderate decrease in LPS-binding activity | b (no detectable activity up to 5 μg/well) | 426.21 | 6.25 | = |  |  |  |  |
| IKISGKWKAQKRFAK [BPI.27] | 5,754.40 pmol | 119.8 | 204 |  | b (no detectable activity up to 5 μg/well) |  |  |  | = (no difference in the LAL assay) |  |  |  |
| IKISGKWKAQKRFLA [BPI.28] | 6,194.40 pmol | 156.6 | 266 |  | b (no detectable activity up to 5 μg/well) |  |  |  | = (no difference in the LAL assay) |  |  |  |
| KAKVGWLIQLFHKK [BPI.32] | 613.80 pmol | 217.1 | 340 | moderate decrease in LPS-binding activity | b (no detectable activity up to 5 μg/well) | 293.62 | 3.13 |  |  |  |  |  |
| KSAVGWLIQLFHKK [BPI.33] | 575.40 pmol | 230.7 | 492 | moderate decrease in LPS-binding activity | b (no detectable activity up to 5 μg/well) | 603.44 | 6.25 | = |  |  |  |  |
| KSKAGWLIQLFHKK [BPI.34] | 916.20 pmol | 205.1 | 518 | moderate decrease in LPS-binding activity | b (no detectable activity up to 5 μg/well) | 319.13 | 6.25 | = |  |  |  |  |
| KSKVAWLIQLFHKK [BPI.35] | 263.00 pmol | 406.0 | 1080 |  | b (no detectable activity up to 5 μg/well) | 441.79 | 3.13 |  |  | 10 | = (no difference in the LAL assay) |  |
| KSKVGALIQLFHKK [BPI.36] | 1,652.00 pmol | 80.2 | 379 | large decrease in LPS-binding activity | b (no detectable activity up to 5 μg/well) | 196.96 | 6.25 | = |  |  |  | approximately 5 fold |
